Assays:
Format in all cases: binding
panel of 442 kinases [1] = target: T1, panel of 442 kinases (Homo sapiens, UniProt Q86UE8); conditions: kinase TLK2; compound concentration 10 µM
T1 construct: purchased KINOMEscan
Source text: (§1) We assessed the selectivity of members of this scaffold using the KINOMEscan methodology across a near comprehensive panel of 442 kinases [[18,27]].

panel of 442 kinases [2] = target: T2, panel of 442 kinases (Homo sapiens, UniProt O43293); conditions: Compound Concentration 10 µM
T2 construct: purchased KINOMEscan
T2 sequence (O43293 whole entry): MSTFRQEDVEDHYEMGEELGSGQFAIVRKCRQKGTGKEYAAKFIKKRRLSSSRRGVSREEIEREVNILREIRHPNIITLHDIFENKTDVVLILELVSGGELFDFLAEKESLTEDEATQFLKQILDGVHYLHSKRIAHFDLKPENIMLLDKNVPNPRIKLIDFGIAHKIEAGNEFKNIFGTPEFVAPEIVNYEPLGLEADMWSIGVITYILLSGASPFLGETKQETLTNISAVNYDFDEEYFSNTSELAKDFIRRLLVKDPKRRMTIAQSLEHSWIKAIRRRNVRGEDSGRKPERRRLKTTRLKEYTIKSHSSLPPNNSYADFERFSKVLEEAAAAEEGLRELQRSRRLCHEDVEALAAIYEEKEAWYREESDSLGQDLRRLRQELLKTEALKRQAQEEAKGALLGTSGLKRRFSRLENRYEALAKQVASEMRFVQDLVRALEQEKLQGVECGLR
Source text: as §1

panel of 442 kinases [3] = target: T3, panel of 442 kinases (Homo sapiens, UniProt P07332); conditions: Compound Concentration 10 µM
T3 construct: purchased KINOMEscan
T3 sequence (P07332 whole entry): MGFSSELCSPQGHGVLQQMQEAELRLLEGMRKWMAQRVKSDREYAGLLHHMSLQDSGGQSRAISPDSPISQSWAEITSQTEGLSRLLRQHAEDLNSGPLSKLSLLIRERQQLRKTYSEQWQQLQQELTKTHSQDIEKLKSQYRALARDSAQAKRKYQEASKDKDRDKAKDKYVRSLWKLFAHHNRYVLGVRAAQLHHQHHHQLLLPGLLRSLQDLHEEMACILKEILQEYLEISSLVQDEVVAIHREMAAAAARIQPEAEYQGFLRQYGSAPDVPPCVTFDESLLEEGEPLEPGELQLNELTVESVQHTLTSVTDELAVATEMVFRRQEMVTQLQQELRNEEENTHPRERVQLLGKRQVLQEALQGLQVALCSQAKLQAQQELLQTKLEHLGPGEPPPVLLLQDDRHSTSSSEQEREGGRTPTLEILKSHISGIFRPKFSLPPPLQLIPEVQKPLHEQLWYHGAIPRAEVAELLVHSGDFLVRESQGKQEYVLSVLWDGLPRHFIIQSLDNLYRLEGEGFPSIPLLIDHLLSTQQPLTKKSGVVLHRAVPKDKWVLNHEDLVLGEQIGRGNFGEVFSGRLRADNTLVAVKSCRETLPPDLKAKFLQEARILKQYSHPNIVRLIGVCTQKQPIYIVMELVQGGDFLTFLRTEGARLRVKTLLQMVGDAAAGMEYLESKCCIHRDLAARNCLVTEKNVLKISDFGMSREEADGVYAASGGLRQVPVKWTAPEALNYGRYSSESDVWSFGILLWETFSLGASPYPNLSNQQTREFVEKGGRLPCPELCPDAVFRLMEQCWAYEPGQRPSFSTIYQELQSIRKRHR
Source text: as §1

panel of 442 kinases [4] = target: T4, panel of 442 kinases (Homo sapiens, UniProt P07949, M918T); conditions: Compound Concentration 10 µM
T4 construct: purchased KINOMEscan
T4 sequence (P07949 29-1114 M918T): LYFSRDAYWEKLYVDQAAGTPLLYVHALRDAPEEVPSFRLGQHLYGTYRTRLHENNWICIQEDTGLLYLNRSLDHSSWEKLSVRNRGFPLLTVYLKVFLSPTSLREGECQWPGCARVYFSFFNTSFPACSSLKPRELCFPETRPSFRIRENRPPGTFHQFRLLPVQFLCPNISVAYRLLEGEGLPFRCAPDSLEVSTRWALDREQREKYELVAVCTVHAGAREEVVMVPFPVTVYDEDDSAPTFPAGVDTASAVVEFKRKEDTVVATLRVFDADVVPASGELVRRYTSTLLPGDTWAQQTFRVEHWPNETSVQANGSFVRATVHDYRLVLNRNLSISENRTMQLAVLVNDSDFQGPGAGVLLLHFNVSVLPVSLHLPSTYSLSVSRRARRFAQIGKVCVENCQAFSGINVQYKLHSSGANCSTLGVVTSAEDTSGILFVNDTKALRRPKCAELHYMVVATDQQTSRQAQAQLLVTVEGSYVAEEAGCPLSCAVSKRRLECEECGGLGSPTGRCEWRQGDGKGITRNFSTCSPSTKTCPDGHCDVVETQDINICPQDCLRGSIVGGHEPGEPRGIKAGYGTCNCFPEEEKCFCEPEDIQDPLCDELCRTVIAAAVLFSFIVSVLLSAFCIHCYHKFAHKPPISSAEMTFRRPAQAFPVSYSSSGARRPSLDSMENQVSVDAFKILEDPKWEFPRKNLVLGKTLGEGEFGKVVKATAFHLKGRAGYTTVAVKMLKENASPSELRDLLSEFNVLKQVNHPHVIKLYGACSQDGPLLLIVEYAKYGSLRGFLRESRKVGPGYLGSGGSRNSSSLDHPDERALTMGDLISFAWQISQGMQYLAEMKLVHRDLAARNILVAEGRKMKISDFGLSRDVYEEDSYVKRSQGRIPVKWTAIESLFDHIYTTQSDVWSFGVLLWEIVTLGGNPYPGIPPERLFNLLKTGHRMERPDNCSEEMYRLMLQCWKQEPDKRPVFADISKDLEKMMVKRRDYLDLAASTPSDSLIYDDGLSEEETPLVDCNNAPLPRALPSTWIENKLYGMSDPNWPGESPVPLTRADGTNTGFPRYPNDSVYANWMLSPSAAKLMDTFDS
Source text: as §1

T1 sequence (Q86UE8 whole entry): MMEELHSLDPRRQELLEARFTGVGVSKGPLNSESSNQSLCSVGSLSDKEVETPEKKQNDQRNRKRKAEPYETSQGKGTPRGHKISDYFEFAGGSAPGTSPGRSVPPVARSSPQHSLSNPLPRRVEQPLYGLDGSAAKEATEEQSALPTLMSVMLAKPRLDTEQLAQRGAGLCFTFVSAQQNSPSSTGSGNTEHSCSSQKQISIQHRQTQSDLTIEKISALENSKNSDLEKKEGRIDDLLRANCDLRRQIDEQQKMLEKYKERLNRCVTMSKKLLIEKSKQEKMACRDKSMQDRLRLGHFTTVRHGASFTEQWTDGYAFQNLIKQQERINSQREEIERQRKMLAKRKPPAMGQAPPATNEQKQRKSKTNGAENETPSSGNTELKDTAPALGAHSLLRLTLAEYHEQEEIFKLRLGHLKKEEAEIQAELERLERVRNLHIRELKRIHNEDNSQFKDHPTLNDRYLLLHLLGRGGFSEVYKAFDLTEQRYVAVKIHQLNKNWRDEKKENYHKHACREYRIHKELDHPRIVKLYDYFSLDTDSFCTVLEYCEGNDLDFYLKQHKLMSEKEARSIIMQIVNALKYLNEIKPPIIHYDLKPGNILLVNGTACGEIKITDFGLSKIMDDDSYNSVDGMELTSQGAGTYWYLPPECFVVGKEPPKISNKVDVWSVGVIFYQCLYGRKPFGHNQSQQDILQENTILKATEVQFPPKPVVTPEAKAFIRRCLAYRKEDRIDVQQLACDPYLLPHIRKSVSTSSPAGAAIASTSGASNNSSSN

SMILES	% Ctrl, TLK2 (panel of 442 kinases [1]) [% Ctrl]	KINOMEscan: DAPK3 (panel of 442 kinases [2])	KINOMEscan: FES (panel of 442 kinases [3])	KINOMEscan: RET(M918T) (panel of 442 kinases [4])
COc1cc(C(=O)N2CCC(N3CCN(C)CC3)CC2)ccc1Nc1ncc2c(n1)N(C)c1ccccc1C(=O)N2C [15 (LRRK2-IN-1)]	99	67	84	100
CCOc1cc(C(=O)N2CCC(N3CCN(C)CC3)CC2)ccc1Nc1ncc2c(n1)N(C1CCCC1)c1ccccc1C(=O)N2C [Compound 26]	100	100	100	100
COc1cc(C(=O)N2CCC(N3CCN(C)CC3)CC2)ccc1Nc1ncc2c(n1)N1CCc3cccc(c31)C(=O)N2C [Compound 24]	98			81
COc1cc(C(=O)N2CCC(N3CCN(C)CC3)CC2)ccc1Nc1ncc2c(n1)N(C1CCCC1)c1ccccc1C(=O)N2C [Compound 25, 11-cyclopentyl-2-((2-methoxy-4-(4-(4-methylpiperazin-1-yl)piperidine-1-carbonyl)phenyl)amino)-5-methyl-5H-benzo[e]pyrimido[5,4-b][1,4]diazepin-6(11H)-one]	94	86	89	94
